We go through three substances from PMC9101373, “Design of DNA Intercalators Based on 4-Carboranyl-1,8-Naphthalimides: Investigation of Their DNA-Binding Ability and Anticancer Activity” (International Journal of Molecular Sciences, 2022).

Assay [1] relates to HepG2 cells. Briefly: Cell cycle analysis by flow cytometry (PI staining). The assay is classed as cell-based, human. As to conditions: HepG2, 24 h at IC50; for cells in G2M phase: control 11.5%. As for the experimental part:
To reveal the mechanism underlying the inhibitory effect of the obtained compounds on cellular viability, we examined cell cycle regulation. For this purpose, HepG2 cells were exposed to compounds 54–61 (54 (5.5 µM), 55 (3.4 µM), 56 (12 µM), 57 (3.1 µM), 58 (3.9 µM), 59 (5.4 µM), 60 (31 µM), and 61 (4.8 µM)). The chosen concentration of each of these compounds corresponded to their total IC50 value.
After exposure, HepG2 cells were examined by flow cytometry, and their DNA content was measured by PI staining. […] Compounds 54–59 caused arrest in the G1/G0 phase since we observed a higher number of cells in that phase as compared to control (Figure 4 and Figure S297, ESI). […] Compounds 60 and 61 arrested cell cycle in the G2M phase, where the accumulation of cells was observed (>18% vs. 11.5% in control cells) (Figure 4 and Figure S297, ESI). In comparison, mitonafide and pinafide induced cell cycle arrest at the S and G2M phases, respectively. […] In contrast, 1,8-naphthalimide products with carborane modification at position 3 caused cell cycle arrest at the G2M phase, similar to pinafide and compounds 60 and 61 from this study.
HepG2 (5 × 10^5) cells were seeded onto 6-well cell culture plates and incubated for 24 h in a fully supplemented EMEM medium (Corning®) with addition of the analyzed compounds at a concentration corresponding to their total IC50 values. DNA content was determined by flow cytometry with PI (Sigma-Aldrich, Steinheim, Germany) staining. After incubation, the cells were trypsinized and washed twice with PBS (1 mL). In the next step, the cells were fixed with an ice-cold 80% ethanol. After 1 h incubation at 4 °C, the cells were stored at −20 °C for further analysis. After double wash with PBS, the fixed cells were stained with PI (50 μg/mL) with RNAse A (100 μg/mL) for 30 min at 37 °C in the dark. PI fluorescence was measured by FACSCalibur (Becton Dickinson), and data were analyzed by FlowJo software. […]

Assay [2] concerns HepG2 cells. The assay can be described thus: Oxidative stress (ROS) measurement by flow cytometry, CellROX Deep Red. The format is cell-based, human. As to conditions: HepG2, 24 h at total IC50. As for the experimental part:
To determine the effect of the compounds on HepG2 cells, we analyzed oxidative status after 24 h of treatment as the pathological level of ROS affects the proper functioning of proteins, lipids, and nucleic acids. The compounds were added to the growth medium at a concentration that corresponds to the total IC50 value. After incubation, the cells were stained with CellROX Deep Red Reagent, which is an oxidative stress indicator. This is a non-fluorescent dye that emits red fluorescent signal upon oxidation by ROS. […] We observed an increase in fluorescence intensity of approximately 22–32% as compared to that of control cells (Figure 5 and Figure S298, ESI).
HepG2 cells (3.85 × 10^5) were seeded onto 6-well plates, cultured with EMEM media at 37 °C and 5% CO2 saturation, and incubated until 60–70% confluence. Subsequently, the cells were treated for 24 h with the tested compounds at a concentration corresponding to their total IC50 values. […] The level of intracellular ROS generation was analyzed by staining with CellROX™ Deep Red Reagent (ex/em: ~644/665 nm) according to the manufacturer’s protocol (Thermo Fisher Scientific, Waltham, MA, USA), in which fluorescence was triggered in the presence of ROS. […] The cells were analyzed after incubation with the dye, with excitation at […] by the FACSCalibur flow cytometer (Becton Dickinson), and data were analyzed by FlowJo software. […]

In the assay on HepG2 cells [1] (control 60.1%), “N-[2-(Dimethylamino)ethyl]-4-[(6-(2-(1,2-dicarba-closo-dodecaborane-1-yl)-ethylamino)hexyl)amino]-1,8-naphthalimide [Compound 58]” registered a G0/G1 cell fraction of 70.4%.

In the case of “N-[2-N-Pyrrolidinyl)ethyl]-4-[(6-(2-(1,7-dicarba-closo-dodecaborane-1-yl)-ethylamino)hexyl)amino]-1,8-naphthalimide [Compound 61]”, the “cells in G2M phase” value in the assay on HepG2 cells [1] is given as more than 18%. The “increase in CellROX fluorescence intensity (ROS) as compared to control” value in the assay on HepG2 cells [2] was 65%.

For “N-[2-N-Pyrrolidinyl)ethyl]-4-[(6-(2-(1,2-dicarba-closo-dodecaborane-1-yl)-ethylamino)hexyl)amino]-1,8-naphthalimide [Compound 60]”, the “cells in G2M phase” value with HepG2 cells [1] is listed as more than 18%. Further, in the assay on HepG2 cells [2], the “increase in CellROX fluorescence intensity (ROS) as compared to control” value came to 64%.
